Reference: article PMC5717258, “Bioaccumulation of pharmaceuticals and personal care product chemicals in fish exposed to wastewater effluent in an urban wetland” (Scientific Reports, 2017)

Key:
[1] = human, ref Schulz et al.[56], cited from earlier work; for Therapeutic "normal" blood-plasma/serum concentration: converted from µg/mL
[2] = for Cootes carp plasma, range of concentrations / wild goldfish plasma, range of concentrations: Cootes Paradise Marsh; for plasma concentration, CPM-C 01: Cootes carp 01, 2011, male; for plasma concentration, CPM-C 2: Cootes carp 2, Sep 27, 2011, male; for plasma concentration, CPM-C 10: Cootes carp 10, Sep 28, 2011, female; for plasma concentration, CPM-C 13: Cootes carp 13, Sep 28, 2011, female; for plasma concentration, CPM-C 20: Cootes carp 20, 2011, male; for plasma concentration, CPM-C 36: Cootes carp 36, Oct 3, 2011, female; for plasma concentration, carp, this study (mean) / plasma concentration, goldfish, this study (mean): Table S8; for plasma concentration, CPM wild-01: wild goldfish sample 01, 2012, wet weight; for plasma concentration, CPM wild-02: wild goldfish sample 02, 2012, wet weight; for plasma concentration, CPM wild-03: wild goldfish sample 03, 2012, wet weight
in vivo = conditions: for concentration at 21 days: goldfish (Carassius auratus)
In short: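 Pooled caged-goldfish plasma, wild-fish plasma (2.3–2.5 g) and water samples were spiked with isotope-labelled surrogates, then extracted (acetonitrile sonication for plasma; pH-adjusted water) and cleaned up by HLB SPE. PPCPs were quantified by LC/ESI-MS/MS using isotope dilution. Non-detects were set to ½ DL when the analyte was detected in ≥2 samples.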

[3] = design: method as in US EPA Chemistry Dashboard; conditions: ref US EPA Chemistry Dashboard; cited from earlier work
[4] = Jordan Harbour brown bullhead, wet weight
In short: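 Pooled caged-fish and wild carp plasma and water samples; plasma spiked with 13C/deuterated surrogate standards, sonicated in acetonitrile, diluted, cleaned by Oasis HLB SPE; water adjusted to pH 2 then pH 4 with EDTA. Quantified by isotope dilution LC/ESI-MS/MS, positive or negative mode, five instrumental runs.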

[5] = ref Meador et al. 18; cited from earlier work
[6] = design: method as in Brown et al. 11; conditions: ref Brown et al. 11; cited from earlier work
[7] = cited from earlier work
[8] = Plasma bioaccumulation factor (BAFP), goldfish; format: in vivo, goldfish (Carassius auratus)
In short: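 BAFP in goldfish was calculated as plasma concentration (ng/g × 1000) divided by water concentration (ng/L).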

[9] = design: method as in Moreno-González et al. 17; conditions: mean ± SD; ref Moreno-González et al. 17; cited from earlier work
[10] = Plasma bioaccumulation factor (BAFP), carp; format: in vivo, carp (Cyprinus carpio)
Description: Bioaccumulation factor (BAFP) was calculated as concentration in fish plasma (ng/g × 1000) divided by concentration in water (ng/L). Two widely used modeling approaches for predicting organic contaminant bioaccumulation were assessed: the BCF-BAF model for whole body BAFs[53] and the fish-plasma concentration calculation of Huggett et al.[35] modified by Berninger et al.[54]. The latter involves estimating an octanol-water partition coefficient (Kow) adjusted for fraction ionized (log D), using the pKa value to adjust log Kow[54] taking into account the pH of CPM waters. Further information on the calculation of log D, blood-water partitioning (PBW), and plasma concentrations (FPC) is given in the SI.

[11] = in vivo, plasma concentration, JH caged, Jordan Harbour reference site, 07-2014, pooled plasma, wet weight
[12] = conc in fish plasma/conc in water
[13] = range based on range of plasma concentrations

Cc1ccc(C)c(OCCCC(C)(C)C(=O)O)c1 [Gemfibrozil]
Therapeutic "normal" blood-plasma/serum concentration [1]: ~25000 ng/mL | Cootes carp plasma, range of concentrations [2]: 0.16 to 0.83 ng/g | wild goldfish plasma, range of concentrations [2]: 0.15–0.15 ng/g | plasma concentration, CPM-C 01 ([2]; wet weight): 0.158 ng/g | plasma concentration, CPM-C 2 ([2]; wet weight): 0.724 ng/g | plasma concentration, CPM-C 10 ([2]; wet weight): 0.227 ng/g | plasma concentration, CPM-C 13 ([2]; wet weight): 0.234 ng/g | plasma concentration, CPM-C 20 ([2]; wet weight): 0.162 ng/g | plasma concentration, CPM-C 36 ([2]; wet weight): 0.827 ng/g | Carp plasma concentration, this study (range) ([2]; Table S7): 0.16 to 0.83 ng/g | Goldfish plasma concentration, this study (range) ([2]; Table S7): 0.15 to 0.86 ng/g | plasma concentration, carp, this study (mean) [2]: 0.39 ng/g wet weight or ng/mL for plasma | plasma concentration, goldfish, this study (mean) [2]: 0.46 ng/g wet weight or ng/mL for plasma | plasma concentration, CPM wild-01 [2]: 0.147 ng/g | plasma concentration, CPM wild-02 [2]: 0.387 ng/g | plasma concentration, CPM wild-03 [2]: 0.86 ng/g | plasma concentration, CPM1 caged (in vivo; CPM1, 07-2014, pooled plasma, wet weight): 0.15 ng/g | plasma concentration, CPM3 caged (in vivo; CPM3, 07-2014, pooled plasma, wet weight): 0.15 ng/g | concentration at 21 days (in vivo; [11]): < 0.3 ng/g | concentration at 21 days (in vivo; plasma, caged goldfish plasma, range of concentrations, Cootes Paradise Marsh, range): 0.15 to 0.86 ng/g | concentration at 21 days (in vivo; plasma, plasma concentration, CPM1 caged, CPM1, 07-2014, pooled plasma, wet weight): 0.147 ng/g | concentration at 21 days (in vivo; plasma, plasma concentration, CPM2 caged, CPM2, 07-2014, pooled plasma, wet weight): 0.146 ng/g | concentration at 21 days (in vivo; plasma, plasma concentration, CPM3 caged, CPM3, 07-2014, pooled plasma, wet weight): 0.154 ng/g | log Kow [3]: 4.14 | plasma concentration, JH-BB [4]: < 0.57 ng/g | whole fish concentration, sculpin [5]: < mdl | plasma concentration, rainbow trout [6]: <8-210 ng/g wet weight or ng/mL for plasma | Salmon (whole body) concentration ([7]; Table S7, ref Meador et al. (2016)): 1.3 ng/g | whole fish concentration, salmon ([7]; ref Meador et al. 18): 1.3 ng/g wet weight or ng/mL for plasma | BAFP, CPM2 goldfish caged ([8]; CPM2, water sample of August 2012): 27 L/kg

COc1ccc(C(CN(C)C)C2(O)CCCCC2)cc1 (stereo not shown) [Venlafaxine]
Therapeutic "normal" blood-plasma/serum concentration [1]: 100 to 400 ng/mL | toxic dose (toxic blood-plasma/serum concentration) [1]: 1000 to 1500 ng/mL | Cootes carp plasma, range of concentrations [2]: 0.04 to 0.27 ng/g | wild goldfish plasma, range of concentrations [2]: 0.04 to 0.17 ng/g | plasma concentration, CPM-C 01 ([2]; wet weight): 0.042 ng/g | plasma concentration, CPM-C 2 ([2]; wet weight): 0.086 ng/g | plasma concentration, CPM-C 10 ([2]; wet weight): 0.061 ng/g | plasma concentration, CPM-C 13 ([2]; wet weight): 0.063 ng/g | plasma concentration, CPM-C 20 ([2]; wet weight): 0.268 ng/g | plasma concentration, CPM-C 36 ([2]; wet weight): 0.057 ng/g | plasma concentration, JH-C 54 ([2]; Jordan Harbour carp 54, Nov 7, 2011, male, wet weight): 0.042 ng/g | plasma concentration, JH-C 73 ([2]; Jordan Harbour carp 73, Nov 7, 2011, female, wet weight): 0.041 ng/g | plasma concentration, JH-C 74 ([2]; Jordan Harbour carp 74, Nov 7, 2011, male, wet weight): 0.043 ng/g | plasma concentration, JH-C 75 ([2]; Jordan Harbour carp 75, Nov 7, 2011, female, wet weight): 0.060 ng/g | plasma concentration, JH-C 82 ([2]; Jordan Harbour carp 82, Nov 7, 2011, female, wet weight): 0.040 ng/g | plasma concentration, carp, this study (mean) [2]: 0.10 ng/g wet weight or ng/mL for plasma | plasma concentration, goldfish, this study (mean) [2]: 0.11 ng/g wet weight or ng/mL for plasma | plasma concentration, CPM wild-01 [2]: 0.039 ng/g | plasma concentration, CPM wild-02 [2]: 0.258 ng/g | plasma concentration, CPM wild-03 [2]: 0.042 ng/g | liver & muscle concentration, mullet [9]: 0.68 ± 1.3 ng/g wet weight or ng/mL for plasma | BAFP at JH, carp, average ([10]; Jordan Harbour): 64 L/kg | BAFP at CPM3, carp, average [10, 12]: 12 L/kg | BAFP at CPM3, carp, range [10, 13]: 5 to 32 L/kg | concentration at 21 days (in vivo; in vivo, caged goldfish plasma, range of concentrations, Cootes Paradise Marsh, range): 0.04 to 0.26 ng/g | concentration at 21 days (in vivo; in vivo, plasma concentration, CPM1 caged, CPM1, 07-2014, pooled plasma, wet weight): 0.165 ng/g | concentration at 21 days (in vivo; in vivo, plasma concentration, CPM2 caged, CPM2, 07-2014, pooled plasma, wet weight): 0.039 ng/g | concentration at 21 days (in vivo; in vivo, plasma concentration, CPM3 caged, CPM3, 07-2014, pooled plasma, wet weight): 0.041 ng/g | concentration at 21 days (in vivo; [11]): < 0.08 ng/g | log Kow [3]: 3.28 | BAFP, CPM1 goldfish caged ([8]; CPM1): 3 L/kg | BAFP, CPM3 goldfish caged ([8]; CPM3): 52 L/kg | BAFP at CPM3, wild goldfish, average [8, 12]: 14 L/kg | BAFP at CPM3, wild goldfish, range [8, 13]: 5 to 31 L/kg
